Results published in US20230183292A1, “IMMUNOMODULATORS” (priority 2020, published 2023).
Read-outs that look alike come from different tables or passages of the source. Starred links: 1 amine or outer side, 2 acyl side, 3 side chain; linkers in the order of their positions; H or OH if unused. Positions of bridges follow the written chain, without caps; N, C: chain ends. Non-standard residues stand in square brackets, D forms with d. Residues, ends and D or L forms follow the SMILES beside them. Groups on a side chain read outwards from the residue. *: point of attachment. X21 = CC[C@H]1[C@@H](O)[C@@H]2[C@H](CC[C@]3(C)[C@@H]([C@H](C)CCC(=O)*)CC[C@@H]23)[C@@]2(C)CC[C@@H](O)C[C@@H]12; Cholesteryloxycarbonyl = CC(C)CCC[C@@H](C)[C@H]1CC[C@H]2[C@@H]3CC=C4C[C@@H](OC(=O)*)CC[C@]4(C)[C@H]3CC[C@]12C; Chenodeoxycholyl = C[C@H](CCC(=O)*)[C@H]1CC[C@H]2[C@@H]3[C@H](O)C[C@@H]4C[C@H](O)CC[C@]4(C)[C@H]3CC[C@]12C; Cholyl = C[C@H](CCC(=O)*)[C@H]1CC[C@H]2[C@@H]3[C@H](O)C[C@@H]4C[C@H](O)CC[C@]4(C)[C@H]3C[C@H](O)[C@]12C; X24 = C[C@H](CCC(=O)*)[C@H]1CC[C@H]2[C@@H]3[C@H](O)[C@H](O)[C@@H]4C[C@H](O)CC[C@]4(C)[C@H]3CC[C@]12C; X23 = C[C@H](CCC(=O)*)[C@H]1CC[C@H]2[C@@H]3C(=O)[C@H](O)[C@@H]4C[C@H](O)CC[C@]4(C)[C@H]3CC[C@]12C; Lithocholoyl = C[C@H](CCC(=O)*)[C@H]1CC[C@H]2[C@@H]3CC[C@@H]4C[C@H](O)CC[C@]4(C)[C@H]3CC[C@]12C; X19 = C[C@H](CCC(=O)*)[C@H]1CC[C@H]2[C@@H]3CC(=O)[C@@H]4C[C@H](O)CC[C@]4(C)[C@H]3CC[C@]12C; X33 = C[C@H](CCC(=O)*)[C@H]1CC[C@H]2[C@@H]3C(=O)C[C@@H]4C[C@H](O)CC[C@]4(C)[C@H]3CC[C@]12C; Trp(1-CH2CO2Me) = COC(=O)Cn1cc(C[C@H](N)C(=O)O)c2ccccc21; X29 = CN(C)C(=O)Cn1cc(C[C@H](N[*:1])C(=O)[*:2])c2ccccc21; Trp(1-CH2COOH) = N[C@@H](Cc1cn(CC(=O)O)c2ccccc12)C(=O)O; Hyp = O=C(O)[C@@H]1C[C@@H](O)CN1; NMeNle = CCCC[C@H](NC)C(=O)O; NMeA = CN[C@@H](C)C(=O)O; Dab = NCC[C@H](N)C(=O)O; Dap = NC[C@H](N)C(=O)O

Target: T1, PD-1/PD-L1 (Homo sapiens, UniProt Q9NZQ7)
T1 construct: TVMV protease site (C); made in house; host or cells: HEK293T cells
T1 sequence (Q9NZQ7 18-239): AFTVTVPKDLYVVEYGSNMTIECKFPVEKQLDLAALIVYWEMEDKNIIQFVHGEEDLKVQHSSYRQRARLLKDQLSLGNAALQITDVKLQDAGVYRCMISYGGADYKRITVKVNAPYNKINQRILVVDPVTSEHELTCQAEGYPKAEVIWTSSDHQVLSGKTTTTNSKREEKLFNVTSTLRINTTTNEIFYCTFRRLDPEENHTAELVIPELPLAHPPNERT
Experiment: PD-1/PD-L1 Homogenous Time-Resolved Fluorescence (HTRF) binding assay
Details: PD-1-Ig 20 nM
From the text: The ability of the compounds of formula (I) to bind to PD-L1 was investigated using a PD-1/PD-L1 Homogenous Time-Resolved Fluorescence (HTRF) binding assay.
The interaction of PD-1 and PD-L1 can be assessed using soluble, purified preparations of the extracellular domains of the two proteins. The PD-1 and PD-L1 protein extracellular domains were expressed as fusion proteins with detection tags, for PD-1, the tag was the Fc portion of Immunoglobulin (PD-1-Ig) and for PD-L1 it was the 6 histidine motif (PD-L1-His). All binding studies were performed in an HTRF assay buffer consisting of dPBS supplemented with 0.1% […] bovine serum albumin and 0.05% (v/v) Tween-20. For the h/PD-L1-His binding assay, inhibitors were pre-incubated with PD-L1-His (10 nM final) for 15 m in 4 μl of assay buffer, followed by addition of PD-1-Ig (20 nM final) in 1 μl of assay buffer and further incubation for 15 m. HTRF detection was achieved using europium crypate-labeled anti-Ig (1 nM final) and allophycocyanin (APC) labeled anti-His (20 nM final). Antibodies were diluted in HTRF detection buffer and 5 μl was dispensed on top of the binding reaction. The reaction mixture was allowed to equilibrate for 30 minutes and the resulting signal (665 nm/620 nm ratio) was obtained using an EnVision fluorometer. Additional binding assays were established between the human proteins PD-1-Ig/PD-L2-His (20 & 5 nM, respectively) and CD80-His/PD-L1-Ig (100 & 10 nM, respectively).
Recombinant Proteins: Human PD-1 (25-167) with a C-terminal human Fc domain of immunoglobulin G (Ig) epitope tag [hPD-1 (25-167)-3S-IG] and human PD-L1 (18-239) with a C-terminal His epitope tag [hPD-L1(18-239)-TVMV-His] were expressed in HEK293T cells and purified sequentially by ProteinA affinity chromatography and size exclusion chromatography. Human PD-L2-His and CD80-His was obtained through commercial sources.
Table 1 lists the IC50 values for representative examples of this disclosure measured in the PD-1/PD-L1 Homogenous Time-Resolved Fluorescence (HTRF) binding assay.

[1] = PD-L1-His 10 nM, read-out: HTRF IC50

Structure (SMILES)	IC50 [1] [nM]	IC50 (HTRF IC50, PD-L1-His 10 nM) [nM]
CCCC[C@H]1C(=O)N(C)[C@@H](CCCC)C(=O)N[C@@H](CC(C)C)C(=O)N[C@H](C(=O)NCC(N)=O)CSCC(=O)N[C@@H](Cc2ccc(O)cc2)C(=O)N(C)[C@@H](C)C(=O)N[C@@H](CC(N)=O)C(=O)N2CCC[C@H]2C(=O)N[C@@H](CNC(=O)CNC(=O)CC[C@@H](C)[C@H]2CC[C@H]3[C@@H]4[C@H](O)C[C@@H]5C[C@H](O)CC[C@]5(C)[C@H]4C[C@H](O)[C@]23C)C(=O)N[C@@H](CC(C)C)C(=O)N2C[C@H](O)C[C@H]2C(=O)N[C@@H](Cc2c[nH]c3ccccc23)C(=O)N[C@@H](CCN)C(=O)N[C@@H](Cc2cn(CC(=O)N(C)C)c3ccccc23)C(=O)N1C [Example 1008] ({CH2CO}-Y[NMeA]NP[Dap]([Gly-Cholyl])L[Hyp]W[Dab][X29][NMeNle][NMeNle]LCG-NH2; thioether N-14)	14	–
CCCC[C@H]1C(=O)N(C)[C@@H](CCCC)C(=O)N[C@@H](CC(C)C)C(=O)N[C@H](C(=O)NCC(N)=O)CSCC(=O)N[C@@H](Cc2ccc(O)cc2)C(=O)N(C)[C@@H](C)C(=O)N[C@@H](CC(N)=O)C(=O)N2CCC[C@H]2C(=O)N[C@@H](CNC(=O)CC[C@@H](C)[C@H]2CC[C@H]3[C@@H]4CC[C@@H]5C[C@H](O)CC[C@]5(C)[C@H]4CC[C@]23C)C(=O)N[C@@H](CC(C)C)C(=O)N2C[C@H](O)C[C@H]2C(=O)N[C@@H](Cc2c[nH]c3ccccc23)C(=O)N[C@@H](CCN)C(=O)N[C@@H](Cc2cn(CC(=O)O)c3ccccc23)C(=O)N1C [Example 1009] ({CH2CO}-Y[NMeA]NP[Dap](Lithocholoyl)L[Hyp]W[Dab][Trp(1-CH2COOH)][NMeNle][NMeNle]LCG-NH2; thioether N-14)	17	–
CCCC[C@H]1C(=O)N(C)[C@@H](CCCC)C(=O)N[C@@H](CC(C)C)C(=O)N[C@H](C(=O)NCC(N)=O)CSCC(=O)N[C@@H](Cc2ccc(O)cc2)C(=O)N(C)[C@@H](C)C(=O)N[C@@H](CC(N)=O)C(=O)N2CCC[C@H]2C(=O)N[C@@H](CNC(=O)CC[C@@H](C)[C@H]2CC[C@H]3[C@@H]4[C@H](O)C[C@@H]5C[C@H](O)CC[C@]5(C)[C@H]4C[C@H](O)[C@]23C)C(=O)N[C@@H](CC(C)C)C(=O)N2C[C@H](O)C[C@H]2C(=O)N[C@@H](Cc2c[nH]c3ccccc23)C(=O)N[C@@H](CCN)C(=O)N[C@@H](Cc2cn(CC(=O)OC)c3ccccc23)C(=O)N1C [Example 1011] ({CH2CO}-Y[NMeA]NP[Dap](Cholyl)L[Hyp]W[Dab][Trp(1-CH2CO2Me)][NMeNle][NMeNle]LCG-NH2; thioether N-14)	6.3	–
CCCC[C@H]1C(=O)N(C)[C@@H](CCCC)C(=O)N[C@@H](CC(C)C)C(=O)N[C@H](C(=O)NCC(N)=O)CSCC(=O)N[C@@H](Cc2ccc(O)cc2)C(=O)N(C)[C@@H](C)C(=O)N[C@@H](CC(N)=O)C(=O)N2CCC[C@H]2C(=O)N[C@@H](CNC(=O)O[C@H]2CC[C@@]3(C)C(=CC[C@H]4[C@@H]5CC[C@H]([C@H](C)CCCC(C)C)[C@@]5(C)CC[C@@H]43)C2)C(=O)N[C@@H](CC(C)C)C(=O)N2C[C@H](O)C[C@H]2C(=O)N[C@@H](Cc2c[nH]c3ccccc23)C(=O)N[C@@H](CCN)C(=O)N[C@@H](Cc2cn(CC(=O)O)c3ccccc23)C(=O)N1C [Example 1012] ({CH2CO}-Y[NMeA]NP[Dap](Cholesteryloxycarbonyl)L[Hyp]W[Dab][Trp(1-CH2COOH)][NMeNle][NMeNle]LCG-NH2; thioether N-14)	–	130
CCCC[C@H]1C(=O)N(C)[C@@H](CCCC)C(=O)N[C@@H](CC(C)C)C(=O)N[C@H](C(=O)NCC(N)=O)CSCC(=O)N[C@@H](Cc2ccc(O)cc2)C(=O)N(C)[C@@H](C)C(=O)N[C@@H](CC(N)=O)C(=O)N2CCC[C@H]2C(=O)N[C@@H](CNC(=O)CC[C@@H](C)[C@H]2CC[C@H]3[C@@H]4[C@H](O)C[C@@H]5C[C@H](O)CC[C@]5(C)[C@H]4CC[C@]23C)C(=O)N[C@@H](CC(C)C)C(=O)N2C[C@H](O)C[C@H]2C(=O)N[C@@H](Cc2c[nH]c3ccccc23)C(=O)N[C@@H](CCNC(=O)CC[C@@H](C)[C@H]2CC[C@H]3[C@@H]4[C@H](O)C[C@@H]5C[C@H](O)CC[C@]5(C)[C@H]4CC[C@]23C)C(=O)N[C@@H](Cc2cn(CC(=O)O)c3ccccc23)C(=O)N1C [Example 1013] ({CH2CO}-Y[NMeA]NP[Dap](Chenodeoxycholyl)L[Hyp]W[Dab](Chenodeoxycholyl)[Trp(1-CH2COOH)][NMeNle][NMeNle]LCG-NH2; thioether N-14)	460	–
CCCC[C@H]1C(=O)N(C)[C@@H](CCCC)C(=O)N[C@@H](CC(C)C)C(=O)N[C@H](C(=O)NCC(N)=O)CSCC(=O)N[C@@H](Cc2ccc(O)cc2)C(=O)N(C)[C@@H](C)C(=O)N[C@@H](CC(N)=O)C(=O)N2CCC[C@H]2C(=O)N[C@@H](CNC(=O)CC[C@@H](C)[C@H]2CC[C@H]3[C@@H]4[C@H](O)[C@H](CC)[C@@H]5C[C@H](O)CC[C@]5(C)[C@H]4CC[C@]23C)C(=O)N[C@@H](CC(C)C)C(=O)N2C[C@H](O)C[C@H]2C(=O)N[C@@H](Cc2c[nH]c3ccccc23)C(=O)N[C@@H](CCNC(=O)CC[C@@H](C)[C@H]2CC[C@H]3[C@@H]4[C@H](O)[C@H](CC)[C@@H]5C[C@H](O)CC[C@]5(C)[C@H]4CC[C@]23C)C(=O)N[C@@H](Cc2cn(CC(=O)O)c3ccccc23)C(=O)N1C [Example 1014] ({CH2CO}-Y[NMeA]NP[Dap](X21)L[Hyp]W[Dab](X21)[Trp(1-CH2COOH)][NMeNle][NMeNle]LCG-NH2; thioether N-14)	340	–
CCCC[C@H]1C(=O)N(C)[C@@H](CCCC)C(=O)N[C@@H](CC(C)C)C(=O)N[C@H](C(=O)NCC(N)=O)CSCC(=O)N[C@@H](Cc2ccc(O)cc2)C(=O)N(C)[C@@H](C)C(=O)N[C@@H](CC(N)=O)C(=O)N2CCC[C@H]2C(=O)N[C@@H](CNC(=O)CC[C@@H](C)[C@H]2CC[C@H]3[C@@H]4C(=O)[C@H](O)[C@@H]5C[C@H](O)CC[C@]5(C)[C@H]4CC[C@]23C)C(=O)N[C@@H](CC(C)C)C(=O)N2C[C@H](O)C[C@H]2C(=O)N[C@@H](Cc2c[nH]c3ccccc23)C(=O)N[C@@H](CCNC(=O)CC[C@@H](C)[C@H]2CC[C@H]3[C@@H]4[C@H](O)[C@H](O)[C@@H]5C[C@H](O)CC[C@]5(C)[C@H]4CC[C@]23C)C(=O)N[C@@H](Cc2cn(CC(=O)O)c3ccccc23)C(=O)N1C [Example 1015] ({CH2CO}-Y[NMeA]NP[Dap](X23)L[Hyp]W[Dab](X24)[Trp(1-CH2COOH)][NMeNle][NMeNle]LCG-NH2; thioether N-14)	9.3	–
CCCC[C@H]1C(=O)N(C)[C@@H](CCCC)C(=O)N[C@@H](CC(C)C)C(=O)N[C@H](C(=O)NCC(N)=O)CSCC(=O)N[C@@H](Cc2ccc(O)cc2)C(=O)N(C)[C@@H](C)C(=O)N[C@@H](CC(N)=O)C(=O)N2CCC[C@H]2C(=O)N[C@@H](CNC(=O)CC[C@@H](C)[C@H]2CC[C@H]3[C@@H]4C(=O)C[C@@H]5C[C@H](O)CC[C@]5(C)[C@H]4CC[C@]23C)C(=O)N[C@@H](CC(C)C)C(=O)N2C[C@H](O)C[C@H]2C(=O)N[C@@H](Cc2c[nH]c3ccccc23)C(=O)N[C@@H](CCNC(=O)CC[C@@H](C)[C@H]2CC[C@H]3[C@@H]4C(=O)C[C@@H]5C[C@H](O)CC[C@]5(C)[C@H]4CC[C@]23C)C(=O)N[C@@H](Cc2cn(CC(=O)O)c3ccccc23)C(=O)N1C [Example 1016] ({CH2CO}-Y[NMeA]NP[Dap](X33)L[Hyp]W[Dab](X33)[Trp(1-CH2COOH)][NMeNle][NMeNle]LCG-NH2; thioether N-14)	12	–
CCCC[C@H]1C(=O)N(C)[C@@H](CCCC)C(=O)N[C@@H](CC(C)C)C(=O)N[C@H](C(=O)NCC(N)=O)CSCC(=O)N[C@@H](Cc2ccc(O)cc2)C(=O)N(C)[C@@H](C)C(=O)N[C@@H](CC(N)=O)C(=O)N2CCC[C@H]2C(=O)N[C@@H](CNC(=O)CC[C@@H](C)[C@H]2CC[C@H]3[C@@H]4CC(=O)[C@@H]5C[C@H](O)CC[C@]5(C)[C@H]4CC[C@]23C)C(=O)N[C@@H](CC(C)C)C(=O)N2C[C@H](O)C[C@H]2C(=O)N[C@@H](Cc2c[nH]c3ccccc23)C(=O)N[C@@H](CCNC(=O)CC[C@@H](C)[C@H]2CC[C@H]3[C@@H]4CC(=O)[C@@H]5C[C@H](O)CC[C@]5(C)[C@H]4CC[C@]23C)C(=O)N[C@@H](Cc2cn(CC(=O)O)c3ccccc23)C(=O)N1C [Example 1017] ({CH2CO}-Y[NMeA]NP[Dap](X19)L[Hyp]W[Dab](X19)[Trp(1-CH2COOH)][NMeNle][NMeNle]LCG-NH2; thioether N-14)	15	–
